Results from ChEMBL document CHEMBL4834472 (J Med Chem, 2021).
pIC50: −log10 of the molar value. Activity calls are given as the source filed them. No cut-off for these calls is given here.

Assays:
CCRF-CEM = test: Antiproliferative activity against human CCRF-CEM cells assessed as cell death measured after 72 hrs by resazurin dye based assay; type: functional
K562 = test: cells; conditions: Homo sapiens, K562, 72 h
Description: Antiproliferative activity against human K562 cells assessed as cell death measured after 72 hrs by resazurin dye based assay

CDK2/Cyclin A1 = CDK2/Cyclin A1 (Homo sapiens, UniProt P24941); type: protein-complex assay
Description: Inhibition of CDK2/Cyclin A1 (unknown origin) at 1 uM using histone H1 as substrate preincubated for 20 mins followed by 33P-ATP addition and measured after 2 hrs by filter binding method

MOLM-14 [1] = test: Antiproliferative activity against human MOLM-14 cells assessed as cell death measured after 72 hrs by resazurin dye based assay; type: functional; conditions: MOLM-14, 72 h
MV4-11 [2] = test: cells; conditions: Homo sapiens, MV4-11, 72 h
Description: Antiproliferative activity against human MV4-11 cells assessed as cell death measured after 72 hrs by resazurin dye based assay

[3] = target: Receptor-type tyrosine-protein kinase FLT3 (Homo sapiens) (UniProt P36888); test: Inhibition of FLT3 in human MV4-11 cells assessed as STAT5 phosphorylation at Y694 at 20 to 100 nM incubated for 1 hrs by Western blot analysis; type: cell-based; conditions: dose 20-100 nM
MOLM-13 = test: Antiproliferative activity against human MOLM-13 cells assessed as cell death measured after 72 hrs by resazurin dye based assay; type: functional; conditions: MOLM-13, 72 h
CDK9/cyclin T1 = CDK9/cyclin T1 (Homo sapiens, UniProt P50750); test: Inhibition of CDK9/cyclin T1 (unknown origin) in presence of [32P]gammaATP by image analyser; type: protein-complex assay
Chain of CDK9/cyclin T1 (O60563 whole entry): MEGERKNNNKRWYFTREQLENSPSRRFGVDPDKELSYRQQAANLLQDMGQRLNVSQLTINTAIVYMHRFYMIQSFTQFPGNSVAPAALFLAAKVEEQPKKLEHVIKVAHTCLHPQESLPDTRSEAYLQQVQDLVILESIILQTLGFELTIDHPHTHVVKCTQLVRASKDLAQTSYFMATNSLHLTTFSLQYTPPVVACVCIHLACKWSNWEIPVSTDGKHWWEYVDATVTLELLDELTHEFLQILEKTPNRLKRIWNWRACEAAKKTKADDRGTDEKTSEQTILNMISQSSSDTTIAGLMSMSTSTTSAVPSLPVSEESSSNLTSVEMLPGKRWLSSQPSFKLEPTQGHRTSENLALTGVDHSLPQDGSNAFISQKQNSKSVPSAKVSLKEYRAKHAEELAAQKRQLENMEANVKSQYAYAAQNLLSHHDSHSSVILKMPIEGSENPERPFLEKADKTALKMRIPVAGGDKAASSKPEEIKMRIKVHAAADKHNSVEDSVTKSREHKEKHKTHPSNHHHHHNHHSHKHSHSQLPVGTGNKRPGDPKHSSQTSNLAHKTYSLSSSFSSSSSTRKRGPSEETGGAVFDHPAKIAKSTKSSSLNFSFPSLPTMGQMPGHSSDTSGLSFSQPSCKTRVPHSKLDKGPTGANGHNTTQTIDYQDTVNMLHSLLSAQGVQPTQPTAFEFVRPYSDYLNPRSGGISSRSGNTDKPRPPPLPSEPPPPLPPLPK
Chain of CDK9/cyclin T1 (P50750 whole entry): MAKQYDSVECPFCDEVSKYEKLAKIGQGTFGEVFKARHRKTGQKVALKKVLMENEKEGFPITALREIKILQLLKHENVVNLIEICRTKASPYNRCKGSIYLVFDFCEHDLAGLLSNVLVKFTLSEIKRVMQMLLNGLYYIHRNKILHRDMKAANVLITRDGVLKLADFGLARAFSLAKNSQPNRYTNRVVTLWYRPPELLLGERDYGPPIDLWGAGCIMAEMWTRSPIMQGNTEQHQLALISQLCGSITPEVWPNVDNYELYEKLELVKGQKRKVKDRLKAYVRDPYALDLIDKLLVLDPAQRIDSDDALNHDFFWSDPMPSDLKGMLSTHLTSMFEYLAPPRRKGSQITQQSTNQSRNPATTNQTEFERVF

[4] = target: Receptor-type tyrosine-protein kinase FLT3 (Homo sapiens) (UniProt P36888); test: Inhibition of FLT3 autophosphorylation in human MV4-11 cells at 20 to 100 nM incubated for 1 hrs by Western blot analysis; type: cell-based; conditions: dose 20-100 nM
BaF3 [5] = test: Antiproliferative activity against mouse BaF3 cells assessed as cell death measured after 72 hrs by resazurin dye based assay; type: functional; conditions: BaF3, 72 h
[6] = target: T1, Receptor-type tyrosine-protein kinase FLT3 (Homo sapiens, UniProt P36888); test: Inhibition of wild type FLT3 (unknown origin) using AGLT peptide substrate in presence of [32P]gammaATP by image analyser
T1 sequence (P36888 whole entry): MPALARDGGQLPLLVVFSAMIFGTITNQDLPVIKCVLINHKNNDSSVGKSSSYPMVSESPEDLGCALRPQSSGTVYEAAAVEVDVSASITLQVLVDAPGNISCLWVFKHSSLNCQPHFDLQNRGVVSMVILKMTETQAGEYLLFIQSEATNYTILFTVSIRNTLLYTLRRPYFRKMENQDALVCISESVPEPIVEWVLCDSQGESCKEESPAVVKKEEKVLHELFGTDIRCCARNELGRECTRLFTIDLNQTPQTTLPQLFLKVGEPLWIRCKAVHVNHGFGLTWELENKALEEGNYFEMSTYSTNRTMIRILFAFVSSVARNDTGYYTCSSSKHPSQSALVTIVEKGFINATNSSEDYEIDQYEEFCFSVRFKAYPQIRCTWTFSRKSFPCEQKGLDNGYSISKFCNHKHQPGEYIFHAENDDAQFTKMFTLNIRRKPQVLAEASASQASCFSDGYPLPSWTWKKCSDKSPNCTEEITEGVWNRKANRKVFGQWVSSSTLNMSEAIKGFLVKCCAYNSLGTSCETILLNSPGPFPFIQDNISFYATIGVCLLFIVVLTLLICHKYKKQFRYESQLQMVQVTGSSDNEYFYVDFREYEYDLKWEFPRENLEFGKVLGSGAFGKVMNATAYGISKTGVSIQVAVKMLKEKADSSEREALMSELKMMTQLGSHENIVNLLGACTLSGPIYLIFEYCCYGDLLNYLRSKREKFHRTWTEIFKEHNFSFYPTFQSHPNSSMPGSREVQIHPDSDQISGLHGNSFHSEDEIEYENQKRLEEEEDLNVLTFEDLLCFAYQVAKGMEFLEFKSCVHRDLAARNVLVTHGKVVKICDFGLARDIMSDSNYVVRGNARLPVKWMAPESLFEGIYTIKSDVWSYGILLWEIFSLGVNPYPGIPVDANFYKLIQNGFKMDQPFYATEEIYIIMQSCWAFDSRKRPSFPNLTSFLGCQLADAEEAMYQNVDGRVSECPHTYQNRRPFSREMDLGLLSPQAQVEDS

MV4-11 [7] = test: Induction of apoptosis in human MV4-11 cells assessed as caspase 7 activation using fluorescent substrate Ac-DEVD-AMC at 100 nM incubated for 24 hrs by Western blot analysis; type: functional, cell-based
MV4-11 [8] = test: Induction of apoptosis in human MV4-11 cells assessed as increase in cleaved PARP1 level at 100 nM incubated for 24 hrs by Western blot analysis; type: functional, cell-based
MV4-11 [9] = test: Induction of apoptosis in human MV4-11 cells assessed as effect on Bcl2 level at 100 nM incubated for 24 hrs by Western blot analysis; type: functional, cell-based
[10] = target: Receptor-type tyrosine-protein kinase FLT3 (Homo sapiens, UniProt P36888, ITD)
SEM cells = test: Antiproliferative activity against human SEM cells assessed as cell death measured after 72 hrs by resazurin dye based assay; type: functional
[11] = target: Cyclin-dependent kinase 4/cyclin D1 (Homo sapiens, UniProt P11802); test: Inhibition of CDK4/cyclin D1 (unknown origin) in presence of [32P]gammaATP by image analyser; type: protein-complex assay
Chain of Cyclin-dependent kinase 4/cyclin D1 (P11802 whole entry): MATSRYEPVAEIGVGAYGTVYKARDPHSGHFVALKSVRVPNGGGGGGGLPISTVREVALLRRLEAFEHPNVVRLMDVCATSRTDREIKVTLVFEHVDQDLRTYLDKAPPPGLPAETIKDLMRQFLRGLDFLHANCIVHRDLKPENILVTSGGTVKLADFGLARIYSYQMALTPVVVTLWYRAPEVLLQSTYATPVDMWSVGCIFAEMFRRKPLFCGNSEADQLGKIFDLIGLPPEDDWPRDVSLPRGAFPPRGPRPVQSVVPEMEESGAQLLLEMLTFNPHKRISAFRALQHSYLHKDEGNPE
Chain of Cyclin-dependent kinase 4/cyclin D1 (P24385 whole entry, further chain): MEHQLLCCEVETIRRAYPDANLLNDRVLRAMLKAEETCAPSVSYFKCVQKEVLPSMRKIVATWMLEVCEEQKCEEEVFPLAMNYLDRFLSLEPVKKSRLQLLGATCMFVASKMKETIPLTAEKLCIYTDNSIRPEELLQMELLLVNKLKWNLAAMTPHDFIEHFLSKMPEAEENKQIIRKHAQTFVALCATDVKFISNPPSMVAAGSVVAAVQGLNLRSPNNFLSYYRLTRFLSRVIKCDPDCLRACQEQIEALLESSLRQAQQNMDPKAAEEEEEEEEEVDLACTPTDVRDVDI

[12] = target: Cyclin-dependent kinase 1/cyclin B1 (Homo sapiens, UniProt P06493); test: Inhibition of CDK1/cyclin B1 (unknown origin) in presence of [32P]gammaATP by image analyser; type: protein-complex assay
Chain of Cyclin-dependent kinase 1/cyclin B1 (P06493 whole entry): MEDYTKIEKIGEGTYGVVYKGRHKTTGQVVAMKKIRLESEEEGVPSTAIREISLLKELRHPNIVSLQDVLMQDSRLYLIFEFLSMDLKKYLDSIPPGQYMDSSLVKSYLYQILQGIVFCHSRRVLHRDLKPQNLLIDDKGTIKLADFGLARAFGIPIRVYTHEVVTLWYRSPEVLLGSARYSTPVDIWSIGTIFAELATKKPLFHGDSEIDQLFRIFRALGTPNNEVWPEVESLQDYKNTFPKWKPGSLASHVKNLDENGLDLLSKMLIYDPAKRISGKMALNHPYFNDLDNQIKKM
Chain of Cyclin-dependent kinase 1/cyclin B1 (P14635 whole entry, further chain): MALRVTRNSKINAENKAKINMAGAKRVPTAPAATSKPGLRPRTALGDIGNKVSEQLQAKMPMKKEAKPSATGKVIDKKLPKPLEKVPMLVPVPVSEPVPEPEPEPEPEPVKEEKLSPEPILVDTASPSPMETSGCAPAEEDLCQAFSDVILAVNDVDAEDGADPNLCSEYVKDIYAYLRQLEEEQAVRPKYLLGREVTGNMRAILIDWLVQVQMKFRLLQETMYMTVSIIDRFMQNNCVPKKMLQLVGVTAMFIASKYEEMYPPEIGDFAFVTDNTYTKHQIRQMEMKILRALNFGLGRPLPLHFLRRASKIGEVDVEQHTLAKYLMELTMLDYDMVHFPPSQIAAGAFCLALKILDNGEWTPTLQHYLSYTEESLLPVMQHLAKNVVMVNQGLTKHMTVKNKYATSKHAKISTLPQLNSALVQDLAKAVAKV

U-937 = test: Antiproliferative activity against human U-937 cells assessed as cell death measured after 72 hrs by resazurin dye based assay; type: functional; conditions: U-937, 72 h
[13] = target: Receptor-type tyrosine-protein kinase FLT3 (Homo sapiens) (UniProt P36888); test: Inhibition of FLT3 in human MV4-11 cells assessed as ERK1/2 phosphorylation at 20 to 100 nM incubated for 1 hrs by Western blot analysis; type: cell-based; conditions: dose 20-100 nM
MV4-11 [14] = test: Induction of apoptosis in human MV4-11 cells assessed as decrease in MCL1 level at 100 nM incubated for 24 hrs by Western blot analysis; type: functional, cell-based
[15] = target: Cyclin-dependent kinase 2/cyclin E1 (Homo sapiens, UniProt P24941); test: Inhibition of CDK2/cyclin E1 (unknown origin) in presence of [32P]gammaATP by image analyser; type: protein-complex assay
MV4-11 [16] = test: Induction of apoptosis in human MV4-11 cells assessed as caspase 3 activation using fluorescent substrate Ac-DEVD-AMC at 100 nM incubated for 24 hrs by Western blot analysis; type: functional, cell-based
MOLM-14 [17] = test: Antiproliferative activity against human MOLM-14 cells harboring D835Y mutant assessed as cell death measured after 72 hrs by resazurin dye based assay; type: functional; conditions: MOLM-14, 72 h
THP-1 = test: Antiproliferative activity against human THP-1 cells assessed as cell death measured after 72 hrs by resazurin dye based assay; type: functional; conditions: THP-1, 72 h
MOLM-14 [18] = test: Antiproliferative activity against human MOLM-14 cells harboring F691L mutant assessed as cell death measured after 72 hrs by resazurin dye based assay; type: functional; conditions: MOLM-14, 72 h
BaF3 [19] = test: Antiproliferative activity against mouse BaF3 cells harboring FLt3 ITD mutant assessed as cell death measured after 72 hrs by resazurin dye based assay; type: functional; conditions: BaF3, 72 h
CDK2/Cyclin A2 = CDK2/Cyclin A2 (Homo sapiens, UniProt P24941); test: Inhibition of CDK2/cyclin A2 (unknown origin) in presence of [32P]gammaATP by image analyser; type: protein-complex assay
[20] = target: Rho-associated protein kinase 2 (Homo sapiens) (UniProt O75116); test: Inhibition of ROCK2 (unknown origin) assessed as residual activity at 500 nM
[21] = target: Lymphokine-activated killer T-cell-originated protein kinase (Homo sapiens) (UniProt Q96KB5); test: Inhibition of TOPK (unknown origin) assessed as residual activity at 500 nM
[22] = target: MAP kinase-interacting serine/threonine-protein kinase 2 (Homo sapiens) (UniProt Q9HBH9); test: Inhibition of MNK2 (unknown origin) assessed as residual activity at 500 nM
Chain of MAP kinase-interacting serine/threonine-protein kinase 2 (Homo sapiens) (Q9HBH9 whole entry, looked up): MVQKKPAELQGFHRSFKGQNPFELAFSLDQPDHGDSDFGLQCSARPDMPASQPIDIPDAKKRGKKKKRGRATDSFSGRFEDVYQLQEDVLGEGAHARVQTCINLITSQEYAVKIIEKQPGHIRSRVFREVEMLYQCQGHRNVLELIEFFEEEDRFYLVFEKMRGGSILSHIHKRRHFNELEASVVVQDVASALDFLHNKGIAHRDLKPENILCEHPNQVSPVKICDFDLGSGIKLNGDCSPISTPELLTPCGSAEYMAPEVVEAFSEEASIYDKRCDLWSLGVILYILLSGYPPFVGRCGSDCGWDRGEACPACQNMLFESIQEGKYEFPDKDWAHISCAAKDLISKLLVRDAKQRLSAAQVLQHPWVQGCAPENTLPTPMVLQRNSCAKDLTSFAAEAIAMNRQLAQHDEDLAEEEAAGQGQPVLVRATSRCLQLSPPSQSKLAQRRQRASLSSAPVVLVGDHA

[23] = target: Dual specificity tyrosine-phosphorylation-regulated kinase 1B (Homo sapiens) (UniProt Q9Y463); test: Inhibition of DYRK1B (unknown origin) assessed as residual activity at 500 nM
Chain of Dual specificity tyrosine-phosphorylation-regulated kinase 1B (Homo sapiens) (Q9Y463 whole entry, looked up): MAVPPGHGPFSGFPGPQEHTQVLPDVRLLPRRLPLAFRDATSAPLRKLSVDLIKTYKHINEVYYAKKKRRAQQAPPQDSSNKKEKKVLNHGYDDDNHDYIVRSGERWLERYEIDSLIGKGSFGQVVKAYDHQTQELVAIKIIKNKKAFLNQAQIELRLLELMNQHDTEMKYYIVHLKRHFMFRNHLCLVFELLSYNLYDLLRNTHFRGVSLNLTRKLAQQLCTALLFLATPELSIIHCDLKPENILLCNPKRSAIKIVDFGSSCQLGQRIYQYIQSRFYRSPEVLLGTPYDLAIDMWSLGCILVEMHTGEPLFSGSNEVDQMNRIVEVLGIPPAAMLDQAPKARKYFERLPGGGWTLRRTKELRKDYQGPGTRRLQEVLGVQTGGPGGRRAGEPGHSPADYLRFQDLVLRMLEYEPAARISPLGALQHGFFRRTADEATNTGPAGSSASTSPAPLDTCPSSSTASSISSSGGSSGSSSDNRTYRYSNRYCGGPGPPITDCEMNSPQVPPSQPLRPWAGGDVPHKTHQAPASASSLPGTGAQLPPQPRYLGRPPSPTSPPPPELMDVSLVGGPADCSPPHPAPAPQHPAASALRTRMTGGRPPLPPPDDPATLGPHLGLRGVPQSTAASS

[24] = target: cGMP-dependent protein kinase 1 (Homo sapiens) (UniProt Q13976); test: Inhibition of PKG1alpha (unknown origin) assessed as residual activity at 500 nM
Chain of cGMP-dependent protein kinase 1 (Homo sapiens) (Q13976 whole entry): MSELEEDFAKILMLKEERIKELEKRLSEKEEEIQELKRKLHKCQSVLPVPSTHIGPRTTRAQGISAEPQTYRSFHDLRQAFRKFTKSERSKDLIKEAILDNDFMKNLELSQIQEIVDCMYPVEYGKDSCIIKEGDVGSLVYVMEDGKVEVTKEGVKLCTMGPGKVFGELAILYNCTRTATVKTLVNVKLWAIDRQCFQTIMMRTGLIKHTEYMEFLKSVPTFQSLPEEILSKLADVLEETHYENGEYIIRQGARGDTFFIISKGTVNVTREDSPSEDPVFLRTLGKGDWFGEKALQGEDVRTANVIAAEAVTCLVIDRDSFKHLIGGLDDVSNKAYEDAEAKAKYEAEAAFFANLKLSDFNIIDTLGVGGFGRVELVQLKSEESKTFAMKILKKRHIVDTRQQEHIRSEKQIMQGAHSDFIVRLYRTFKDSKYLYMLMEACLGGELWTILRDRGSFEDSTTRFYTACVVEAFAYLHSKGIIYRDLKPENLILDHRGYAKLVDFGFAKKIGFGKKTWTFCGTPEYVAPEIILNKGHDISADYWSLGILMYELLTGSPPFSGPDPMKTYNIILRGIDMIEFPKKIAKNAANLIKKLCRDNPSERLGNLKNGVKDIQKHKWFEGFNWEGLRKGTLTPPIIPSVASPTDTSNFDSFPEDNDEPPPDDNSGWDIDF

[25] = test system: Receptor-type tyrosine-protein kinase FLT3 (Homo sapiens), P36888 [UNDEFINED MUTATION]; test: Inhibition of FLT3 ITD (unknown origin) assessed as residual activity at 500 nM
[26] = target: Ribosomal protein S6 kinase beta-1 (Homo sapiens) (UniProt P23443); test: Inhibition of p70S6K (unknown origin) assessed as residual activity at 500 nM
[27] = target: Ribosomal protein S6 kinase alpha-4 (Homo sapiens) (UniProt O75676); test: Inhibition of MSK2 (unknown origin) assessed as residual activity at 500 nM
[28] = target: CDK2/Cyclin A1 (Homo sapiens) (UniProt P24941+P78396); test: Inhibition of CDK2/cyclin A1 (unknown origin) assessed as residual activity at 500 nM; type: protein-complex assay
[29] = target: Maternal embryonic leucine zipper kinase (Homo sapiens) (UniProt Q14680); test: Inhibition of MELK (unknown origin) assessed as residual activity at 500 nM
[30] = target: NT-3 growth factor receptor (Homo sapiens) (UniProt Q16288); test: Inhibition of TRKC (unknown origin) assessed as residual activity at 500 nM
Chain of NT-3 growth factor receptor (Homo sapiens) (Q16288 32-839 limits assumed): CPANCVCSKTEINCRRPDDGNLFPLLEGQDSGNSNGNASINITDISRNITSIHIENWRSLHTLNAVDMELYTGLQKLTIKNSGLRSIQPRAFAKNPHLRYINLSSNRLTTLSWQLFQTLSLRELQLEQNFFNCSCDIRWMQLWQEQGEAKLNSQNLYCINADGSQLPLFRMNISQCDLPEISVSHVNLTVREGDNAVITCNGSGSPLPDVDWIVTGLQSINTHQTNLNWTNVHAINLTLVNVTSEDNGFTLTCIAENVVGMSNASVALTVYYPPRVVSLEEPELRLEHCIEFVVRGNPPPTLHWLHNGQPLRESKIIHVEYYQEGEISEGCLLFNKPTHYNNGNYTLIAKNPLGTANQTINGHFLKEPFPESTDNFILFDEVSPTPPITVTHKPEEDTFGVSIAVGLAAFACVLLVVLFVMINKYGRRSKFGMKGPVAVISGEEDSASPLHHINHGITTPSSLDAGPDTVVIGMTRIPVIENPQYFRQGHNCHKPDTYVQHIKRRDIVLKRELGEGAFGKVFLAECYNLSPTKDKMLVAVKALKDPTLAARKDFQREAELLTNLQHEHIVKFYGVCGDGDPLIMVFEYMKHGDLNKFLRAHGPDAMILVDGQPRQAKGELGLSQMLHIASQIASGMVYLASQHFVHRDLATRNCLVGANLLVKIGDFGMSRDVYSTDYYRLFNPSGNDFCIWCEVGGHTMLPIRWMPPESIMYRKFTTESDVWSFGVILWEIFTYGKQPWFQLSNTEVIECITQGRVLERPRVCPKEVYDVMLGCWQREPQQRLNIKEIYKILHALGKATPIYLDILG

[31] = target: Dual specificity protein kinase CLK1 (Homo sapiens) (UniProt P49759); test: Inhibition of CLK1 (unknown origin) assessed as residual activity at 500 nM
[32] = target: Leucine-rich repeat serine/threonine-protein kinase 2 (Homo sapiens) (UniProt Q5S007); test: Inhibition of LRRK2 (unknown origin) assessed as residual activity at 500 nM
[33] = test system: Receptor-type tyrosine-protein kinase FLT3 (Homo sapiens), P36888 [D835Y]; test: Inhibition of FLT3 D835Y (unknown origin) assessed as residual activity at 500 nM

pIC50 (K562)	pIC50 (CDK2/Cyclin A1)	pIC50 (MV4-11 [2])	pIC50 (CDK9/cyclin T1)	pIC50 [6]	pIC50 [10]	pIC50 [11]	pIC50 [12]	pIC50 [15]	pIC50 (CDK2/Cyclin A2)	SMILES	pIC50 (CCRF-CEM)	pIC50 (MOLM-14 [1])	pIC50 (MOLM-13)	pIC50 (BaF3 [5])	pIC50 (SEM cells)	pIC50 (U-937)	pIC50 (MOLM-14 [17])	pIC50 (THP-1)	pIC50 (MOLM-14 [18])	pIC50 (BaF3 [19])	other results
5.04	6.80	7.70	< 6.00	8.15	9.00	< 6.00	6.85	6.74	6.80	Cc1n[nH]c2cc(F)c3nc(-c4c[nH]nc4C(F)(F)F)c4c(c3c12)CCCC4	5.24	7.85	8.15	5.22	6.95	5.59	8.15	5.55	7.32	7.80	inhibition [3]: Active; inhibition [4]: Active; Activity (MV4-11 [7]): Active; Activity (MV4-11 [8]): Active; Activity (MV4-11 [9]): Active; inhibition [13]: inactive; Activity (MV4-11 [14]): Active; Activity (MV4-11 [16]): Active
5.07	7.41	7.15								FC(F)(F)c1n[nH]cc1-c1nc2ccc3[nH]ncc3c2c2c1CCCC2											Activity [20]: < 25%; Activity [21]: < 25%; Activity [22]: < 25%; Activity [23]: 4%; Activity [24]: < 25%; Activity [25]: < 2.5%; Activity [26]: < 25%; Activity [27]: < 25%; Activity [28]: < 25%; Activity [29]: 4%; Activity [30]: 4%; Activity [31]: 4%; Activity [32]: 4%; Activity [33]: < 2.5%
5.48	7.41	7.66	6.71	7.68	7.37	< 6.00	6.92	7.26	7.41	Fc1cc2[nH]ncc2c2c3c(c(-c4cn[nH]c4)nc12)CCCC3	5.26	7.10	7.31	4.82	5.98	5.50	7.34	5.72	7.30	6.09	
